Test results published in PubChem BioAssay (NCI).
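48-hour exposure; five concentrations; linearly interpolated endpoints. The concentration for 50% growth inhibition is given as GI50. At the TGI there is no net growth.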

How the values were obtained:
Test in all cases: NCI anticancer screen, dose series, 48 h
786-0 renal = test system: 786-0 renal
A498 renal = test system: A498 renal
A549 NSCLC = test system: A549 NSCLC
ACHN renal = test system: ACHN renal
BT-549 breast = test system: BT-549 breast
CAKI-1 renal = test system: CAKI-1 renal
CCRF-CEM leukemia = test system: CCRF-CEM leukemia
DU-145 prostate = test system: DU-145 prostate
EKVX NSCLC = test system: EKVX NSCLC
HCC-2998 colon = test system: HCC-2998 colon
HCT-116 colon = test system: HCT-116 colon
HCT-15 colon = test system: HCT-15 colon
HL-60(TB) leukemia = test system: HL-60(TB) leukemia
HOP-62 NSCLC = test system: HOP-62 NSCLC
HOP-92 NSCLC = test system: HOP-92 NSCLC
HS 578T breast = test system: HS 578T breast
HT29 colon = test system: HT29 colon
IGROV1 ovarian = test system: IGROV1 ovarian
KM12 colon = test system: KM12 colon
M14 melanoma = test system: M14 melanoma
MALME-3M melanoma = test system: MALME-3M melanoma
MDA-MB-231 breast = test system: MDA-MB-231 breast
MDA-MB-435 = test system: MDA-MB-435
NCI-H226 lung = test system: NCI-H226 lung
NCI-H23 lung = test system: NCI-H23 lung
NCI-H460 lung = test system: NCI-H460 lung
NCI-H522 lung = test system: NCI-H522 lung
NCI/ADR-RES ovarian = test system: NCI/ADR-RES ovarian
OVCAR-3 ovarian = test system: OVCAR-3 ovarian
OVCAR-4 ovarian = test system: OVCAR-4 ovarian
OVCAR-5 ovarian = test system: OVCAR-5 ovarian
PC-3 prostate = test system: PC-3 prostate
RPMI-8226 leukemia = test system: RPMI-8226 leukemia
RXF 393 renal = test system: RXF 393 renal
SF-268 CNS = test system: SF-268 CNS
SF-295 CNS = test system: SF-295 CNS
SF-539 CNS = test system: SF-539 CNS
SK-MEL-2 melanoma = test system: SK-MEL-2 melanoma
SK-MEL-28 melanoma = test system: SK-MEL-28 melanoma
SK-MEL-5 melanoma = test system: SK-MEL-5 melanoma
SK-OV-3 ovarian = test system: SK-OV-3 ovarian
SN12C renal = test system: SN12C renal
SNB-19 CNS = test system: SNB-19 CNS
SNB-75 CNS = test system: SNB-75 CNS
SW-620 colon = test system: SW-620 colon
TK-10 renal = test system: TK-10 renal
U251 CNS = test system: U251 CNS
UACC-257 melanoma = test system: UACC-257 melanoma
UACC-62 melanoma = test system: UACC-62 melanoma
UO-31 renal = test system: UO-31 renal

With `Cn1cc(-c2csc(-c3c[nH]c4ccccc34)n2)c2cnccc21` the GI50 (786-0 renal) was 1.9 µM, the TGI (786-0 renal) was 3.44 µM and the GI50 (A498 renal) was 1.89 µM. The TGI (A498 renal) was 3.58 µM, the GI50 (A549 NSCLC) was 2.47 µM and the TGI (A549 NSCLC) was 5.88 µM. For the same compound, the GI50 (ACHN renal) was 1.93 µM, the TGI (ACHN renal) was 3.77 µM and the GI50 (BT-549 breast) was 1.78 µM. The TGI (BT-549 breast) was 3.59 µM, the GI50 (CAKI-1 renal) was 2.08 µM and the TGI (CAKI-1 renal) was 4.71 µM. It also gave a GI50 (CCRF-CEM leukemia) of 2.4 µM, a TGI (CCRF-CEM leukemia) of 6.42 µM and a GI50 (DU-145 prostate) of 2.24 µM. For the same compound, the TGI (DU-145 prostate) was 5.65 µM, the GI50 (EKVX NSCLC) was 1.92 µM and the TGI (EKVX NSCLC) was 4.61 µM. The GI50 (HCC-2998 colon) was 2.01 µM, the TGI (HCC-2998 colon) was 3.61 µM and the GI50 (HCT-116 colon) was 1.73 µM. It also gave a TGI (HCT-116 colon) of 3.22 µM, a GI50 (HCT-15 colon) of 1.79 µM and a TGI (HCT-15 colon) of 3.6 µM. It also gave a GI50 (HL-60(TB) leukemia) of 2.17 µM, a TGI (HL-60(TB) leukemia) of 4.77 µM and a GI50 (HOP-62 NSCLC) of 1.79 µM. For the same compound, the TGI (HOP-62 NSCLC) was 3.45 µM, the GI50 (HOP-92 NSCLC) was 1.52 µM and the TGI (HOP-92 NSCLC) was 3.28 µM. It also gave a GI50 (HS 578T breast) of 2.21 µM, a TGI (HS 578T breast) of 4.72 µM and a GI50 (HT29 colon) of 2.01 µM. For the same compound, the TGI (HT29 colon) was 4.26 µM, the GI50 (IGROV1 ovarian) was 1.73 µM and the TGI (IGROV1 ovarian) was 3.55 µM. For the same compound, the GI50 (KM12 colon) was 1.65 µM, the TGI (KM12 colon) was 3.41 µM and the GI50 (M14 melanoma) was 1.84 µM. For the same compound, the TGI (M14 melanoma) was 3.46 µM, the GI50 (MALME-3M melanoma) was 1.94 µM and the TGI (MALME-3M melanoma) was 3.62 µM. The GI50 (MDA-MB-231 breast) was 1.67 µM, the TGI (MDA-MB-231 breast) was 3.22 µM and the GI50 (MDA-MB-435) was 1.87 µM. For the same compound, the TGI (MDA-MB-435) was 3.43 µM, the GI50 (NCI-H226 lung) was 17.1 µM and the TGI (NCI-H226 lung) was 45.4 µM. It also gave a GI50 (NCI-H23 lung) of 1.77 µM, a TGI (NCI-H23 lung) of 3.97 µM and a GI50 (NCI-H460 lung) of 1.85 µM. The TGI (NCI-H460 lung) was 3.61 µM, the GI50 (NCI-H522 lung) was 2.02 µM and the TGI (NCI-H522 lung) was 3.91 µM. The GI50 (NCI/ADR-RES ovarian) was 2.4 µM, the TGI (NCI/ADR-RES ovarian) was 5.44 µM and the GI50 (OVCAR-3 ovarian) was 1.96 µM. The TGI (OVCAR-3 ovarian) was 3.56 µM, the GI50 (OVCAR-4 ovarian) was 2.3 µM and the TGI (OVCAR-4 ovarian) was 6.52 µM. The GI50 (OVCAR-5 ovarian) was 2.62 µM, the TGI (OVCAR-5 ovarian) was 5.52 µM and the GI50 (PC-3 prostate) was 2.4 µM. The TGI (PC-3 prostate) was 6.31 µM, the GI50 (RPMI-8226 leukemia) was 2.14 µM and the TGI (RPMI-8226 leukemia) was 5 µM. For the same compound, the GI50 (RXF 393 renal) was 1.63 µM, the TGI (RXF 393 renal) was 3.11 µM and the GI50 (SF-268 CNS) was 1.97 µM. The TGI (SF-268 CNS) was 3.93 µM, the GI50 (SF-295 CNS) was 1.81 µM and the TGI (SF-295 CNS) was 3.37 µM. It also gave a GI50 (SF-539 CNS) of 1.79 µM, a TGI (SF-539 CNS) of 3.29 µM and a GI50 (SK-MEL-2 melanoma) of 2.1 µM. The TGI (SK-MEL-2 melanoma) was 3.81 µM, the GI50 (SK-MEL-28 melanoma) was 1.8 µM and the TGI (SK-MEL-28 melanoma) was 3.25 µM. The GI50 (SK-MEL-5 melanoma) was 1.76 µM, the TGI (SK-MEL-5 melanoma) was 3.18 µM and the GI50 (SK-OV-3 ovarian) was 1.9 µM. For the same compound, the TGI (SK-OV-3 ovarian) was 3.72 µM, the GI50 (SN12C renal) was 1.74 µM and the TGI (SN12C renal) was 3.31 µM. For the same compound, the GI50 (SNB-19 CNS) was 2.07 µM, the TGI (SNB-19 CNS) was 4.11 µM and the GI50 (SNB-75 CNS) was 12.9 µM. For the same compound, the TGI (SNB-75 CNS) was 26.2 µM, the GI50 (SW-620 colon) was 1.98 µM and the TGI (SW-620 colon) was 3.69 µM. It also gave a GI50 (TK-10 renal) of 2.74 µM, a TGI (TK-10 renal) of 5.1 µM and a GI50 (U251 CNS) of 1.95 µM. The TGI (U251 CNS) was 3.72 µM, the GI50 (UACC-257 melanoma) was 2 µM and the TGI (UACC-257 melanoma) was 3.72 µM. The GI50 (UACC-62 melanoma) was 1.82 µM, the TGI (UACC-62 melanoma) was 3.32 µM and the GI50 (UO-31 renal) was 1.64 µM. It also gave a TGI (UO-31 renal) of 3.35 µM.
